Measured values reported in patent US20220315534A1, “BETA ADRENERGIC AGONIST AND METHODS OF USING THE SAME” (Curasen Therapeutics, Inc., priority 2019, published 2022).

Tests used:
[1] = biological target: T1, β1-adrenergic receptor (B1-AR) (Homo sapiens, UniProt P08588); assay: cAMP Gs dynamic HTRF assay, cells expressing β1-adrenergic receptor; assay type: cell-based; conditions: CHO-K1 (HitHunter) cells; read-out: Average pEC50 [Receptor subtype: B1-AR; Cell type: CHO-K1 (HitHunter)] (converted)
T1 construct: expressed in transfected cells
Method: (§1) cAMP homogeneous time-resolved fluorescence (HTRF): experimental methods. Compound efficacy is determined using the cAMP Gs dynamic HTRF assay (Cisbio, catalog #62AM4PEC) largely following the manufacturer's instructions, also detailed below.
(§2) Standard serial dilution curves are 10-point, 5-fold dilutions starting from a highest concentration of 10 μM. […] Assay plates are centrifuged at 500×g for 10 seconds. Compounds and IBMX are prepared at 2× final dose to compensate for addition of cells.
(§3) Cell preparation: 1× stimulation buffer, washing PBS (Dulbecco's phosphate-buffered saline, —Mg —Ca; Caisson Labs, catalog #PBL01), assay PBS (Dulbecco's phosphate-buffered saline, +Mg, +Ca; Caisson Labs, catalog #PBL02) and Versene (0.02% EDTA disodium salt solution in PBS without calcium or magnesium; Caisson Labs, catalog #EDL01) are pre-warmed to 37° C. Cells expressing beta-adrenergic receptor were washed in washing PBS to remove growth medium and then released from the surface by incubating with Versene for 5-10 minutes at 37° C. Cells are harvested using assay PBS, counted manually by hemocytometer or by an automated cell counter, pelleted by centrifugation (200×g, 5 minutes) and resuspended in 37° C. 1× stimulation buffer to a final density of […]. 5 μL of the suspended cell solution (7500 cell total) are added to all wells of the 384 well assay plate, the assay plate was covered with an Axygen® plate seal (Corning PCR-SP) and incubated in a humidified 37° C. environment supplemented with 5% CO2 for 30 minutes.
(§4) HTRF reagent addition, reading and data analysis: After 30 minutes of cell stimulation with test compound, the assay plates are centrifuged at 500×g for 10 seconds, and incubation was stopped with the addition of 5 μL cAMP-D2 acceptor, diluted 1:21 in detection and lysis buffer 2 (Cisbio 62CL2FDF) was added to all cells. Subsequently, 5 μL Anti-cAMP-Eu Donor, diluted 1:21 in detection and lysis buffer 2, was added to cells. Plates were sealed and reactions gently ‘vortexed’ at 900 rpm on a Heidolph Titramax 1000 for at least 30 minutes at room temperature. Plates are centrifuged again at 500×g for 10 seconds, and HTRF was measured using a Tecan Spark plate reader at 50 flashes per well. […] Potency estimates (EC50 and pEC50) are derived from the four-parameter nonlinear regression of the concentration-effect curve and an estimate of relative efficacy is determined by comparing the magnitude of the test compound HTRF signal window (min-max dose) with the signal window of the full agonist control, isoproterenol.

[2] = biological target: T2, β2-adrenergic receptor (B2-AR) (Homo sapiens, UniProt P07550); assay: cAMP Gs dynamic HTRF assay, cells expressing β2-adrenergic receptor; assay type: cell-based; conditions: CHO-K1 (HitHunter) cells; read-out: Average pEC50 [Receptor subtype: B2-AR; Cell type: CHO-K1 (HitHunter)] (converted)
T2 construct: expressed in transfected cells
Method: as §1, §2, §3, §4

T2 sequence (P07550 whole entry): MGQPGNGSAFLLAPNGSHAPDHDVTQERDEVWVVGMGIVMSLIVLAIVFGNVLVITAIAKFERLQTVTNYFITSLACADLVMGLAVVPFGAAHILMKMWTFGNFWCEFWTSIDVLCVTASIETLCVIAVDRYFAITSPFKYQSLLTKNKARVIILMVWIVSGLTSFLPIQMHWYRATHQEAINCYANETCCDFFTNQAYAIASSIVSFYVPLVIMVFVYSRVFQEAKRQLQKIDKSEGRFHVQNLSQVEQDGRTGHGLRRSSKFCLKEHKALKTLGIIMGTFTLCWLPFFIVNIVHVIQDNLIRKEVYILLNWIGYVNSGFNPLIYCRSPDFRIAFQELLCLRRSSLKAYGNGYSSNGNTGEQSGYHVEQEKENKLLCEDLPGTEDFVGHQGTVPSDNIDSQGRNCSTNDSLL
T1 sequence (P08588 whole entry): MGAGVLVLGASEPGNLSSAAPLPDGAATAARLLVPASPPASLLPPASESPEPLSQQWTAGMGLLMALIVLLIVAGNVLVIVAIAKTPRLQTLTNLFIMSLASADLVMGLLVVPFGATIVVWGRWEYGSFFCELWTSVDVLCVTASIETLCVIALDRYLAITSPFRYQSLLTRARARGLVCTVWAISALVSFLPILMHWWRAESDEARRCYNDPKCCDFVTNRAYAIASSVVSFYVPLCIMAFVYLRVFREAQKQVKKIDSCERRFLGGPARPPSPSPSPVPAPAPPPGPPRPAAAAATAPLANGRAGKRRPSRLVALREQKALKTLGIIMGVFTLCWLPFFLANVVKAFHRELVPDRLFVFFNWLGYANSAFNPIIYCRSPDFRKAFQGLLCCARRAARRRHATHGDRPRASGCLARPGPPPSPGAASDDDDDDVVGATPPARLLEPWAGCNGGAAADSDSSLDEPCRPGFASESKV

| EC50 [1] [nM] | EC50 [2] [nM] | SMILES |
| --- | --- | --- |
| > 1000 | > 1000 | CC(C)(C)NC[C@H](O)c1nccc2[nH]ncc12 [Compound 04-144, (S)-2-(tert-butylamino)-1-(1H-pyrazolo[4,3-c]pyridin-4-yl)ethan-1-ol] |
| > 1000 | > 1000 | CC(C)(C)NC[C@@H](O)c1nccc2[nH]ncc12 [Compound 04-145, (R)-2-(tert-butylamino)-1-(1H-pyrazolo[4,3-c]pyridin-4-yl)ethan-1-ol] |
| < 10 | < 10 | CC(C)CNC[C@H](O)c1cc(F)cc2[nH]ncc12 [Compound 04-146] |
| < 10 | < 10 | CC1(NC[C@H](O)c2cc(F)cc3[nH]ncc23)CC1 [Compound 04-147] |
| < 10 | < 10 | CC1(NC[C@H](O)c2cc(F)cc3[nH]ncc23)CCC1 [Compound 04-148] |
| < 10 | < 10 | CC(C)NC[C@H](O)c1cc(F)cc2[nH]ncc12 [Compound 04-149] |
| < 10 | < 10 | CC(C)NC[C@H](O)c1cccc2[nH]c(=O)ccc12 [Compound 04-152] |
| 100 to 1000 | 10 to 100 | CC(C)(C)NC[C@H](O)c1cnc2[nH]cnc2c1 [Compound 04-157] |

| SMILES | EC50 [1] [nM] | EC50 [2] [nM] |
| --- | --- | --- |
| COc1ccc([C@@H](O)CNC(C)(C)C)c2cn[nH]c12 [Compound 04-150] | 10 to 100 | < 10 |
| CC(C)(C)NC[C@H](O)c1cccc2[nH]nc(C#N)c12 [Compound 04-151] | < 10 | 10 to 100 |
| CC(C)(C)NC[C@H](O)c1cccc2[nH]ncc12 [Compound 04-153] | > 1000 | 10 to 100 |
| COc1cc([C@@H](O)CNC(C)(C)C)c2cn[nH]c2c1 [Compound 04-154] | 100 to 1000 | < 10 |
| Cc1cc([C@@H](O)CNC(C)(C)C)cc2nc[nH]c12 [Compound 04-155] | > 1000 | 100 to 1000 |
| CC(C)(C)NC[C@H](O)c1cc(F)c2[nH]cnc2c1 [Compound 04-156] | 10 to 100 | < 10 |
| CC(C)(C)NC[C@H](O)c1cccc2c1C(F)(F)C(=O)N2 [Compound 04-158] | 10 to 100 | < 10 |
